Results on twelve compounds are retold here after patent US20250059140A1, “C19 D[…], AND PREPARATION METHOD AND APPLICATION THEREOF” (SOUTHWEST JIAOTONG UNIVERSITY, priority 2022, published 2025).

One test relates to Na+/K+-ATPase. Put plainly: Na+/K+-ATPase activity in hypoxic cardiomyocytes (kit). The test is classed as cell-based. The following applies: concentration of 25 mol/L; CoCl2-induced hypoxia in H9c2 cells. As to the method:
(§1) FIGS. 1B-C show an effect of the compound 1 on the Na^+/K^+-ATPase specific activity and Ca^2+/Mg^2+-ATPase activity of the hypoxic cardiomyocytes, where the test is performed in triplicate; ##P<0.01, ###P<0.001, and ####P<0.0001, indicating the significant difference from the control group; and *P<0.05, **P<0.01, ***P<0.001, and ****P<0.0001, indicating the significant difference from the CoCl2 group;
(§2) When cells experienced hypoxic injury, a large amount of reactive oxygen species (ROS) was released. DCFH-DA probe was used to label ROS in H9c2 cells, and 900 μM CoCl2 and different concentrations of cammconine (12.5, 25, 50 PM) were administered to detect the changes in ROS by flow cytometry and fluorescence inverted microscopy. […] Changes in ATPase activity after treating the cells with myocardial hypoxia with cammaconine were detected by a kit. […] Changes in the transcriptional level of the cardiomyocyte hypoxia key indicator HIF-1α and calcium cycle-related indicators were detected by qPCR.

In the next test the test system is HIF-1α. Put plainly: qPCR transcriptional level of HIF-1α in CoCl2-hypoxic H9c2 cells. The test is classed as cell-based. The following applies: CoCl2-induced hypoxia in H9c2 cells, FIG. 2A. The method, then:
(§3) In FIGS. 2A-F, the detection is performed in triplicate; ##P<0.01, ###P<0.001, and ####P<0.0001, indicating the significant difference from the control group; and *P<0.05, **P<0.01, ***P<0.001, and ****P<0.0001, indicating the significant difference from the CoCl2 group.
as §2

The subject of a further test is DHPR. Put plainly: qPCR transcriptional level of DHPR in CoCl2-hypoxic H9c2 cells. The test is classed as cell-based. The following applies: CoCl2-induced hypoxia in H9c2 cells, FIG. 2B. As to the method: (§4) FIGS. 2B-F show transcriptional level results (detected by q-PCR) of calcium channel-related indicators in cardiomyocytes, where 2B: DHPR; 2C: RyR2; 2D: SERCA2a; 2E: NCX; and 2F: NHE.
as §3, §2
In general terms: Real-time PCR tracks product formation cycle by cycle.

In a further test the test system is H9c2 cells. Put plainly: H9c2 cell viability by MTT assay, CoCl2-induced myocardial hypoxia. The test is classed as cell-based. The following applies: concentration of 6.25-50 M, FIG. 1A.
For another test, the system named is NCX. Put plainly: qPCR transcriptional level of NCX in CoCl2-hypoxic H9c2 cells. The class given is cell-based. The following applies: CoCl2-induced hypoxia in H9c2 cells, FIG. 2E. The method, then: as §4, §3, §2
The next test has as its system RyR2. The test can be described thus: qPCR transcriptional level of RyR2 in CoCl2-hypoxic H9c2 cells. The test is classed as cell-based. The following applies: CoCl2-induced hypoxia in H9c2 cells, FIG. 2C. The method, then: as §4, §3, §2
In another test the test system is isolated bullfrog hearts. The test can be described thus: Cardiotonic effect on isolated bullfrog hearts in vitro. Particulars: for Cardiotonic effect compared with the positive control: 0.005 mol/L versus positive control at 0.01 mol/L; for activation at 5000 µM: isolated bullfrog heart, tested concentration 0.005 mol/L; for Average increase rate (%) (average amplitude growth rate of the frog heart) / Results (class of heart-strengthening effect): positive control. The method, then:
The preparation of in vitro isolated bullfrog heart was carried out according to the method recorded in the literature (Ding Hong, Experimental Pharmacology, pp. 504-506, Science Publishing House, 2008) as follows. Bullfrogs weighing 150-200 g, male and female, were used herein. At room temperature, the brain and spinal cord of the bullfrogs was destroyed with a metal probe, and then the chest wall of the bullfrogs was incised to expose the heart and the right aorta and the left aorta were each threaded with a wire. The right aorta was knotted directly, and the left aorta was cut with scissors in a “V” shaped incision. A frog heart cannula containing a small amount of Ringer's solution was inserted into the ventricle. The wire of the left aorta was attached and secured to the lateral hook of the cannula. The blood in the heart tube of the bullfrogs was repeatedly flushed with fresh Ringer's solution until the fluid was clear and colorless. The heart cannula was inserted into the ventricle and perfused with Ringer's solution. The bullfrog heart cannula was fixed on the iron stand with a clamp. The muscle tension transducer was fixedly arranged under the bullfrog heart cannula, and the isolated bullfrog heart was connected to the muscle tension transducer via a bullfrog heart clip and a wire. The volume of solution in the cannula was adjusted by 1.0 mL and the subject compound or an equivalent volume of a solvent was added to the cannula. The subject compound was evaluated for cardiac activity on isolated perfused frog hearts, and heart rate and contraction amplitude were recorded.
The cardiotonic effects of compounds 1-10 provided in the present disclosure on isolated bullfrog hearts in vitro were investigated, with deacetylmaurolidine and mesaconitine as positive controls.
The tested concentration of compounds 1-10 was 0.005 mol/L, and the tested concentrations of the positive controls, i.e., mesaconitine and deacetylmaurolidine, were 0.01 mol/L and 0.0002 mol/L, respectively.

For test [1], the system named is reactive oxygen species (ROS) in H9c2 cells. The test can be described thus: ROS detection with DCFH-DA probe in CoCl2-hypoxic H9c2 cells. The test is classed as cell-based. Particulars: 12.5, 25, 50 PM; 900 μM CoCl2; flow cytometry and fluorescence microscopy. As to the method:
FIGS. 1D-I show fluorescence detection results of reactive oxygen species (ROS) of different groups of H9c2 cells (scale bar: 20 μm), where 1D: control group; 1E: CoCl2 group; 1F: 50 μM-Trimetazidine group; 1G: 12.5 μM-Cammaconine group; 1H: 25 μM-Cammaconine group; and 11:50 μM-Cammaconine group;
as §2

The subject of a further test is SERCA2a. The test can be described thus: qPCR transcriptional level of SERCA2a in CoCl2-hypoxic H9c2 cells. The class given is cell-based. The following applies: CoCl2-induced hypoxia in H9c2 cells, FIG. 2D. As to the method: as §4, §3, §2
The test system of another test is NHE. Put plainly: qPCR transcriptional level of NHE in CoCl2-hypoxic H9c2 cells. The test is classed as cell-based. The following applies: CoCl2-induced hypoxia in H9c2 cells, FIG. 2F. The method, then:
as §4, §3, §2

A further test has as its system Ca2+/Mg2+-ATPase. Put plainly: Ca2+/Mg2+-ATPase activity in hypoxic cardiomyocytes (kit). The class given is cell-based. The following applies: concentration of 25 mol/L; CoCl2-induced hypoxia in H9c2 cells. As to the method: as §1, §2
The mark [2] stands for this setting: read-out: Average increase rate (%) (average amplitude growth rate of the frog heart).
[3] abbreviates: read-out: Results (class of heart-strengthening effect).
The mark [4] stands for this setting: tested concentration 0.01 mol/L.
Setting [5] is: tested concentration 0.0002 mol/L.

Entries after “also recorded” stand apart in the source; their conditions may differ. Read-outs that look alike come from different tables or passages of the source.

Consider `CCN1C[C@]2(CO)CC[C@H](OC)[C@@]34C5C[C@@H]6[C@@H](OC)C[C@@](O)(C5[C@H]6O)C(CC23)[C@@H]14` (stereo partly drawn) [Compound 1, cammaconine], for which the “Na+/K+-ATPase activity” value in the test with Na+/K+-ATPase is listed as “increase the enzyme activity”. In addition, the “mRNA transcriptional level of HIF-1α” value with HIF-1α is “decreased”. Also, the “mRNA level of DHPR” value in the test on DHPR is listed as “decreased”. In the test with H9c2 cells, the “Cardioprotective effect on H9c2 cells (cell viability, MTT)” value is listed as “certain cardioprotective effects”. For the same compound, the “mRNA level of NCX” value in the test on NCX is “decreased”. Moreover, the “mRNA level of RyR2” value with RyR2 is “decreased”. In addition, in the test with isolated bullfrog hearts, the “Cardiotonic effect compared with the positive control” value is listed as “better cardiotonic effect; also recorded: significantly enhanced”. Besides, the figures for the activation at 5000 µM in the test with isolated bullfrog hearts (setting [2]) and in the test with isolated bullfrog hearts (setting [3]) were 118% and greater than 60%, respectively. Further, in test [1], the “Levels of ROS in H9c2 cells” value was “significantly reduced”. For the same compound, in the test on SERCA2a, the “mRNA level of SERCA2a” value is listed as “decreased”. The “mRNA level of NHE” value with NHE is “decreased”. Moreover, the “Ca2+/Mg2+-ATPase activity” value with Ca2+/Mg2+-ATPase was “increase the enzyme activity”.

Regarding `CO[C@H]1C[C@@]2(O)C3C(C[C@H]1[C@@H]3O)[C@]13C4CC2[C@H]1N(C)C[C@]4(CO)CC[C@@H]3OC` (stereo partly drawn) [Compound 2, N-deethyl-N-methyl cammaconine], the “Cardiotonic effect compared with the positive control” value in the test with isolated bullfrog hearts is “better cardiotonic effect; also recorded: significantly enhanced”. The activation at 5000 µM with isolated bullfrog hearts (setting [2]) was 159%; in the test with isolated bullfrog hearts (setting [3]) it was greater than 60%.

With `CO[C@H]1C[C@@]2(O)C3C(C[C@H]1[C@@H]3O)[C@]13C4CC2[C@H]1NC[C@]4(CO)CC[C@@H]3OC` (stereo partly drawn) [Compound 3, N-deethyl cammaconine], the results for the activation at 5000 µM in the test with isolated bullfrog hearts (setting [2]) and in the test on isolated bullfrog hearts (setting [3]) were 36.8% and 31 to 60%, respectively.

Take `CCN1C[C@]2(CO)CC[C@H](OC)[C@@]34C5C[C@@H]6[C@@H](OC)C[C@@](O)(C5[C@H]6OC)C(CC23)[C@@H]14` (stereo partly drawn) [Compound 4, scaconine]: the “Cardiotonic effect compared with the positive control” value in the test with isolated bullfrog hearts was “better cardiotonic effect; also recorded: significantly enhanced”. Besides, the activation at 5000 µM was 156% in the test with isolated bullfrog hearts (setting [2]) and greater than 60% in the test with isolated bullfrog hearts (setting [3]).

Regarding `CCN1C[C@]2(CO)CC[C@H](OC)[C@@]34C5C[C@@H]6[C@@H](OC)C[C@@](OC)(C5[C@H]6O)C(CC23)[C@@H]14` (stereo partly drawn) [Compound 5, 8-O-methyl cammaconine], the activation at 5000 µM in the test on isolated bullfrog hearts (setting [2]) is 33.6%; in the test on isolated bullfrog hearts (setting [3]), 31 to 60%.

With `CCN1C[C@]2(CO)CC[C@H](OC)[C@@]34C5C[C@@H]6[C@@H](OC)C[C@@](OC)(C5[C@H]6OC)C(CC23)[C@@H]14` (stereo partly drawn) [Compound 6, 8,14-O-dimethyl cammaconine], the activation at 5000 µM with isolated bullfrog hearts (setting [2]) was 31.2%; with isolated bullfrog hearts (setting [3]), 31 to 60%.

`CCN1C[C@]2(CO)CC[C@H](OC)[C@@]34C5C[C@H]6[C@H](O)C5[C@](O)(C[C@@H]6O)C(CC23)[C@@H]14` (stereo partly drawn) [Compound 7, 16-demethyl cammaconine]: the “Cardiotonic effect compared with the positive control” value with isolated bullfrog hearts is “better cardiotonic effect; also recorded: significantly enhanced”. Besides, the activation at 5000 µM in the test with isolated bullfrog hearts (setting [2]) is 75.2%; in the test on isolated bullfrog hearts (setting [3]), greater than 60%.

As to `CCO[C@]12C[C@H](OC)[C@H]3CC(C1[C@H]3O)[C@]13C4CC2[C@H]1N(CC)C[C@]4(CO)CC[C@@H]3OC` (stereo partly drawn) [Compound 8, 8-O-ethyl cammaconine], the activation at 5000 µM in the test on isolated bullfrog hearts (setting [2]) was 57.2%; in the test on isolated bullfrog hearts (setting [3]), 31 to 60%.

Regarding `CCO[C@]12C[C@H](OC)[C@H]3CC(C1[C@H]3OC)[C@]13C4CC2[C@H]1N(CC)C[C@]4(CO)CC[C@@H]3OC` (stereo partly drawn) [Compound 9, 8-O-ethyl, 14-O-methyl cammaconine], the activation at 5000 µM in the test on isolated bullfrog hearts (setting [2]) is 21.8%; in the test on isolated bullfrog hearts (setting [3]), 16 to 30%.

Regarding `CO[C@H]1C[C@@]2(O)C3C(C[C@H]1[C@@H]3OC)[C@]13C4CC2[C@H]1N(C)C[C@]4(CO)CC[C@@H]3OC` (stereo partly drawn) [Compound 10, N-deethyl-N-methyl 14-O-methyl cammaconine], in the test with isolated bullfrog hearts, the “Cardiotonic effect compared with the positive control” value was “better cardiotonic effect; also recorded: significantly enhanced”. Further, the activation at 5000 µM is 148% in the test on isolated bullfrog hearts (setting [2]) and greater than 60% with isolated bullfrog hearts (setting [3]).

For `COC[C@]12CN(C)[C@@H]3[C@@H]4[C@H](OC)[C@H]1[C@@]3([C@@H](OC)C[C@H]2O)[C@@H]1C[C@@]2(O)[C@H](OC(=O)c3ccccc3)[C@@H]1[C@]4(OC(C)=O)[C@@H](O)[C@@H]2OC` [Mesaconitine, mesaconitine, reference compound], in the test with isolated bullfrog hearts (setting [4]), the “Average increase rate (%) (average amplitude growth rate of the frog heart)” value is 70.7% and the “Results (class of heart-strengthening effect)” value is “Strong (>60% (+++, strong))”.

As to “deacetylmaurolidine [reference compound]”, in the test on isolated bullfrog hearts (setting [5]), the “Average increase rate (%) (average amplitude growth rate of the frog heart)” value was found to be 61% and the “Results (class of heart-strengthening effect)” value was “Strong (>60% (+++, strong))”.
